One data set addresses T1, Rat NEP (Rattus norvegicus, UniProt P07861).
T1 construct: leaving a viscous oily precipitate containing the enriched membrane fraction; from tissue; host or cells: kidneys of adult Sprague Dawley rats (Triton X-114 enriched membrane fraction)
T1 sequence (P07861 1-750): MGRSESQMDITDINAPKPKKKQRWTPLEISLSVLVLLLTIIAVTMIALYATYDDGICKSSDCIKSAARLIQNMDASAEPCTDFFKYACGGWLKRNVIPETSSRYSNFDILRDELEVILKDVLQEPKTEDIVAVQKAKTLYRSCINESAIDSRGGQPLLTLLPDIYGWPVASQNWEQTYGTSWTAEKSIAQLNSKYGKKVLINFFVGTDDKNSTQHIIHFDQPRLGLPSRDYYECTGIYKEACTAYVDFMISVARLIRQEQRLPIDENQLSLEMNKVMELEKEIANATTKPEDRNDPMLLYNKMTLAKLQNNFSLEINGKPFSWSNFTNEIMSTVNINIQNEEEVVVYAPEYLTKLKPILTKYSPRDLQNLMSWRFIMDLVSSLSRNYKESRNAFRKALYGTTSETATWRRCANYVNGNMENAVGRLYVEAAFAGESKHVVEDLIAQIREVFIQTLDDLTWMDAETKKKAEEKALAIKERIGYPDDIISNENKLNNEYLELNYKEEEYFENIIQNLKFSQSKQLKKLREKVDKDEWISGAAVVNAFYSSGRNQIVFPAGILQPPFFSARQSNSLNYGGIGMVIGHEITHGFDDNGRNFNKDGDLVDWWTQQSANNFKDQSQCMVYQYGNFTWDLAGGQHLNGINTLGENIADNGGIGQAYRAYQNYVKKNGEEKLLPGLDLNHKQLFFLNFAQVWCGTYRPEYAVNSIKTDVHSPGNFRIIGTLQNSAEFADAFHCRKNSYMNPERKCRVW
Nature of the data set: In vitro enzyme inhibition assay, rat NEP (Assay 1). In kind it is biochemical. Conditions: NEP from rat kidneys; read-out: rat pKi (converted). The protocol:
(§1) The inhibitory activities at human and rat neprilysin (EC 3.4.24.11; NEP) were determined using in vitro assays as described below.
Rat NEP was prepared from the kidneys of adult Sprague Dawley rats. Whole kidneys were washed in cold phosphate buffered saline (PBS) and brought up in ice-cold lysis buffer (1% Triton X-114, 150 mM NaCl, 50 mM tris(hydroxymethyl) aminomethane (Tris) pH 7.5; Bordier (1981) J. Biol. Chem. 256: 1604-1607) in a ratio of 5 mL of buffer for every gram of kidney. Samples were homogenized on ice using a polytron hand held tissue grinder. Homogenates were centrifuged at 1000×g in a swinging bucket rotor for 5 minutes at 3° C. The pellet was resuspended in 20 mL of ice cold lysis buffer and incubated on ice for 30 minutes. Samples (15-20 mL) were then layered onto 25 mL of ice-cold cushion buffer (6% w/v sucrose, 50 mM pH 7.5 Tris, 150 mM NaCl, 0.06%, Triton X-114), heated to 37° C. for 3-5 minutes and centrifuged at 1000×g in a swinging bucket rotor at room temperature for 3 minutes. The two upper layers were aspirated off, leaving a viscous oily precipitate containing the enriched membrane fraction. Glycerol was added to a concentration of 50% and samples were stored at −20° C. Protein concentrations were quantitated using a BCA detection system with bovine serum albumin (BSA) as a standard.
(§2) The assays were performed in 384-well white opaque plates at 37° C. using the fluorogenic peptide substrate at a concentration of 10 μM in Assay Buffer (50 mM HEPES, pH 7.5, 100 mM NaCl, 0.01% polyethylene glycol sorbitan monolaurate (Tween-20), 10 μM ZnSO4).
(§3) Test compounds were assayed over the range of concentrations from 10 μM to 20 pM. Test compounds were added to the enzyme and incubated for 30 minute at 37° C. prior to initiating the reaction by the addition of substrate. Reactions were terminated after 20 minutes of incubation at 37° C. by the addition of glacial acetic acid to a final concentration of 3.6% (v/v).
(§4) Plates were read on a fluorometer with excitation and emission wavelengths set to 320 nm and 405 nm, respectively. Inhibition constants were obtained by nonlinear regression of the data using the equation (GraphPad Software, Inc., San Diego, Calif.): v=v0/[1+(I/K′)] where v is the reaction rate, v0 is the uninhibited reaction rate, I is the inhibitor concentration and K′ is the apparent inhibition constant.

Data set [1] in a line: IV/PO pharmacokinetic study in rats (Assay 3). It is filed as in vivo. The following applies: male, Sprague-Dawley, plasma, rat, read-out: AUClast Mean. The procedure:
(§5) Each rat or dog pharmacokinetic study began with formulation of the test compound. Appropriate masses of each test compound were added into a volume of vehicle (e.g. 5% sodium bicarbonate, 5% dextrose in water) such that the final concentration of each compound was appropriate to be dosed at 2 mL/kg. Although a homogenous suspension were acceptable for oral dosing, intravenous dosing solutions were sterile-filtered (0.2 μm) prior to dosing to ensure no particulates were administered.
In the rat study, pre-cannulated male Sprague-Dawley rats (3 per route) between 8 and 10 weeks of age were obtained from Harlan Laboratories (Indianapolis, Ind.). Rats received either a single oral gavage or a single intravenous (via lateral tail vein) dose of the dosing solution. The final dose was typically 0.5-3 mg/kg. Serial blood samples were harvested via the cannula implanted in the jugular vein at 3 minutes, 15 minutes, 30 minutes, 1 hour, 2 hours, 4 hours, 6 hours, and 24 hours post-dose. Sampling was performed either manually or using automated blood samplers. Samples were collected into microtainer tubes containing sodium fluoride, potassium oxalate and paraoxon, and were processed to plasma by refrigerated centrifugation.
(§6) Plasma samples were extracted with 3 volumes of MeCN containing a suitable internal standard. Extracts were reconstituted into 3 volumes of water containing 1% formic acid, and analyzed via HPLC-coupled MS/MS. Plasma concentration-time data were analyzed using the Phoenix software (Pharsight Corp., St. Louis, Mo.) to calculate pharmacokinetic parameters.

The nature of data set [2]: IV/PO pharmacokinetic study in dogs (Assay 3). It is filed as in vivo. Conditions: male, beagle, plasma, dog, read-out: AUClast Mean. The procedure: as §5
In the dog study, male beagle dogs (3 per route) housed at Agilux Laboratories (Worcester, Mass.) and weighing between 7-12 kg received either a single oral gavage or a single intravenous (via indwelling catheter) dose of the dosing solution. The final dose was typically 0.1-2 mg/kg. Serial blood samples were harvested via direct venipuncture at 3 minutes, 15 minutes, 30 minutes, 1 hour, 2 hours, 4 hours, 6 hours, 8 hours, 12 hours, and 24 hours post-dose. All samples were collected manually into microtainer tubes containing sodium fluoride, potassium oxalate and paraoxon, and were processed to plasma by refrigerated centrifugation.
as §6

The target in another data set is NEP (Homo sapiens, UniProt P08473). Briefly: In vitro enzyme inhibition assay, human NEP (Assay 1). In kind it is biochemical. Also on record: purchased R&D Systems 1182-ZN. The following applies: read-out: human pKi (converted). The procedure: as §1
Sequence of NEP (P08473 52-750 limits assumed): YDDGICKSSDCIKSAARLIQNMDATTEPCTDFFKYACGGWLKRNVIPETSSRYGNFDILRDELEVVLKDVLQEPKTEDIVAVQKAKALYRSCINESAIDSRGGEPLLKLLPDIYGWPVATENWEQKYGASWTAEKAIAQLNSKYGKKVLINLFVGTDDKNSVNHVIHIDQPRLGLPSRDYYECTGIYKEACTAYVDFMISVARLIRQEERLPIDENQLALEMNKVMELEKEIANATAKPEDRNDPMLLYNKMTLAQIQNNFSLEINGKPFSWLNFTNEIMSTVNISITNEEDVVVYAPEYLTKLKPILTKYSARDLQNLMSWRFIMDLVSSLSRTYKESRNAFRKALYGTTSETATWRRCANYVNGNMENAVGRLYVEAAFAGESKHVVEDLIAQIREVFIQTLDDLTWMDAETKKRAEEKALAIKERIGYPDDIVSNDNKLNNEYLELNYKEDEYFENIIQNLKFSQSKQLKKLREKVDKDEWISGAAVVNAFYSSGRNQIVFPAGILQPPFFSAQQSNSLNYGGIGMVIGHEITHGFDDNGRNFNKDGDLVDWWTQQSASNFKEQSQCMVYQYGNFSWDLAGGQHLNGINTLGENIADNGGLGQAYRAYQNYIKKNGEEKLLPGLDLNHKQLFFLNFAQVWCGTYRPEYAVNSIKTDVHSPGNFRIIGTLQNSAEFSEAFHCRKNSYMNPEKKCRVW
Recombinant human NEP was obtained commercially (R&D Systems, Minneapolis, Minn., catalog number 1182-ZN). The fluorogenic peptide substrate Mca-D-Arg-Arg-Leu-Dap-(Dnp)-OH (Medeiros et al. (1997) Braz. J. Med. Biol. Res. 30:1157-62; Anaspec, San Jose, Calif.) was used.
as §2, §3, §4

Data set [3] is described as follows: Accelerated stability study of calcium salt crystals (Example 7). It is filed as physicochemical. The source says:
One challenge in pharmaceutical drug development relates to discovering a stable, crystalline form of a drug having a reasonably high melting point. The challenge of the present invention was that crystals of the free acid of Compound 1 could not be obtained. Furthermore, many crystal screens failed, with the exception of two-arginine and calcium crystals of (2S,4R)-5-(5′-chloro-2′-fluorobiphenyl-4-yl)-4-(ethoxyoxalylamino)-2-hydroxymethyl-2-methylpentanoic acid were obtained. However, the arginine crystals (see Example 1) were deliquescent at ambient conditions and were difficult to develop further. On the other hand, the calcium crystals were stable and melted around 239° C. For that reason, an accelerated stability study of Compound 1′ was conducted at the temperatures and % relative humidity (RH) reported below.

Data set [4] in a line: Dynamic moisture sorption assessment. In kind it is physicochemical. The protocol:
In one embodiment, crystalline form 1′ is characterized by the DMS isotherm in FIG. 4. This form is a non-hygroscopic solid. The total moisture gain observed is less than 1% by weight when exposed to between 5% and 90% relative humidity. No significant hysteresis is found between consecutive sorption-desorption cycles.
DMS measurements were performed using a VTI atmospheric microbalance, SGA-100 system (VTI Corp., Hialeah, Fla. 33016). A weighed sample was used and the humidity was lowest possible value (close to 0% relative humidity) at the start of the analysis. The DMS analysis consisted of a scan rate of 5% relative humidity/step over the full humidity range of 5-90%. The DMS run was performed isothermally at 25° C.

Setting [5] is: PO, analyte = compound dosed (prodrug).
Where [6] appears, read: IV, analyte = compound dosed (active metabolite).

SMILES strings stand for the structures.

On to `CCOC(=O)[C@](C)(CO)C[C@@H](Cc1ccc(-c2cc(Cl)ccc2F)cc1)NC(=O)C(=O)O` [Comparison Compound C3, (2S,4R)-5-(5′-Chloro-2′-fluorobiphenyl-4-yl)-2-hydroxymethyl-2-methyl-4-(oxalylamino)pentanoic Acid Ethyl Ester], for which the Ki is 2000 nM at Rat NEP and 3980 nM at NEP. Moreover, the AUC(0-t) in data set [1] (setting [5]) came to 560 ng·h/mL; in data set [2] (setting [5]), 950 ng·h/mL.

Turning to `CCOC(=O)[C@H](O)C[C@@H](Cc1ccc(-c2cc(Cl)ccc2F)cc1)NC(=O)C(=O)O` [Comparison Compound C4, (2R,4R)-5-(5′-Chloro-2′-fluorobiphenyl-4-yl)-2-hydroxy-4-(oxalylamino)pentanoic Acid Ethyl Ester], the figures for the Ki on Rat NEP and at NEP were 7.94 nM and 15.8 nM, respectively. Further, the AUC(0-t) in data set [1] (setting [5]) amounted to 40 ng·h/mL; in data set [2] (setting [5]) it was 480 ng·h/mL.

Turning to `CCOC(=O)C(=O)N[C@H](Cc1ccc(-c2cc(Cl)ccc2F)cc1)C[C@@H](O)C(=O)O` [Comparison Compound C5, (2R,4R)-5-(5′-Chloro-T-fluorobiphenyl-4-yl)-4-(ethoxyoxalylamino)-2-hydroxypentanoic Acid], the Ki at Rat NEP and at NEP was 0.2 nM throughout. Besides, in data set [2] (setting [5]), the AUC(0-t) worked out at 29 ng·h/mL.

With `O=C(O)C(=O)N[C@H](Cc1ccc(-c2cc(Cl)ccc2F)cc1)C[C@@H](O)C(=O)O` [Comparison Compound C6, (2R,4R)-5-(5′-Chloro-T-fluorobiphenyl-4-yl)-2-hydroxy-4-(oxalylamino)pentanoic Acid], the Ki was 0.158 nM at Rat NEP and 0.2 nM at NEP. The values for the AUC(0-t) in data set [1] (setting [6]) and in data set [2] (setting [6]) were 15000 ng·h/mL and 1280 ng·h/mL, respectively.

Consider `CCOC(=O)C(=O)N[C@H](Cc1ccc(-c2cc(Cl)ccc2F)cc1)C[C@@](C)(CO)C(=O)O` [Compound 1′, Calcium (2S,4R)-5-(5′-Chloro-2′-fluoro-[1,1′-biphenyl]-4-yl)-4-(2-ethoxy-2-oxoacetamido)-2-(hydroxymethyl)-2-methylpentanoate], for which the Assay in data set [3] (5° C., 0 months) was 95.0 % (w/w); in data set [3] (5° C., 2 months), 93.4 % (w/w); in data set [3] (5° C., 3 months) it was 92.4 % (w/w); in data set [3] (25° C., 60% RH, 0 months), 95.0 % (w/w); in data set [3] (25° C., 60% RH, 2 months), 94.4 % (w/w); in data set [3] (25° C., 60% RH, 3 months), 92.9 % (w/w). For the same compound, the Assay in data set [3] (40° C., 75% RH, 0 months) is listed as 95.0 % (w/w); in data set [3] (40° C., 75% RH, 1 month) it was 95.5 % (w/w); in data set [3] (40° C., 75% RH, 2 months), 92.1 % (w/w); in data set [3] (40° C., 75% RH, 3 months), 92.1 % (w/w). Further, the Purity in data set [3] (5° C., 0 months) is on record as 97.3 % (a/a); in data set [3] (5° C., 2 months), 97.6 % (a/a); in data set [3] (5° C., 3 months) it was 97.5 % (a/a); in data set [3] (25° C., 60% RH, 0 months), 97.3 % (a/a); in data set [3] (25° C., 60% RH, 2 months), 97.3 % (a/a); in data set [3] (25° C., 60% RH, 3 months), 96.8 % (a/a). For the same compound, the Purity in data set [3] (40° C., 75% RH, 0 months) was 97.3 % (a/a); in data set [3] (40° C., 75% RH, 1 month), 95.9 % (a/a); in data set [3] (40° C., 75% RH, 2 months), 95.3 % (a/a); in data set [3] (40° C., 75% RH, 3 months), 93.9 % (a/a). For the same compound, the “stability (in words)” value in data set [3] (up to at least three months at the temperatures and relative humidity tested) is “relatively stable”. For the same compound, in data set [4] (DMS isotherm), the “hygroscopicity (in words)” value is recorded as “non-hygroscopic”. In addition, the total moisture gain entry in data set [4] (between 5% and 90% relative humidity, 25° C.) is “less than 1 % by weight”.

Source of the values: patent US9868698B2, “(2S,4R)-5-(5′-chloro-2′-fluorobiphenyl-4-yl)-4-(ethoxyoxalylamino)-2-hydroxymethyl-2-methylpentanoic acid” (THERAVANCE BIOPHARMA R&D IP, LLC, priority 2015, dated 2018).
